Earlier results in patent publication US6960354B1, “Membrane lipid compositions” (Phares Technology BV, priority 1999, dated 2005).

Structure (SMILES): O=C(O)c1ccccc1O [Salicylic acid]
- solubility in ethanol (ethanol): soluble
- solubility in water (water): only sparingly soluble
